Like-named read-outs stand apart in the source and are kept apart here. Peptide text beside a SMILES is read from it. A value given as a limit tells only on which side of the number the result lay.

Here are results for 8 compounds from article PMC7602288, “Characterization of Novel Dipeptidyl Peptidase-IV Inhibitory Peptides from Soft-Shelled Turtle Yolk Hydrolysate Using Orthogonal Bioassay-Guided Fractionations Coupled with In Vitro and In Silico Study” (Pharmaceuticals, 2020).

Assay [1] has as its target T1, human Dipeptidyl-peptidase (DPP-IV) (Homo sapiens, UniProt P27487).
T1 construct: purchased Sigma Chemical Co. (St. Louis, MO, USA)
The assay can be described thus: Stability of synthesized peptides against DPP-IV (pre-incubation experiment, LC-MS and inhibition assay). Conditions: peptide 500 µM; for DPP-IV inhibitory activity, after pre-incubation: after pre-incubation with DPP-IV 3 h at 37 °C. It is filed as biochemical. Here is the method: The synthetic peptide was pre-incubated with DPP-IV to determine stability against DPP-IV. […] According to the previous method by Nongonierma et al. with slight modification, 50 μL of peptides (500 µM) dissolved in 1% DMSO were pre-incubated with 100 μL of DPP-IV (1 U/μL) in DPP-IV buffer at 37 °C for 3 h. Consequently, 75 µL of pre-incubation mixture was combined with 25 µL of 2 mM NaOH and 25 µL of 1.6 mM Gly-Pro-p-nitroanilide, and further pre-incubated at 37 °C for 10 min. The mixture was added with 25 µL of DPP-IV buffer and then incubated at 37 °C for 60 min. The reaction was ended using 100 µL of 1M sodium acetate at pH 4.0. The absorbance of each reaction was measured at 405 nm in a SpectraMax 190 Microplate Reader (Molecular Devices, LLC, San Jose, CA, USA) to determine DPP-IV inhibitory activity of peptide after a pre-incubation period. The remaining 75 µL of the original mixture was heat-inactivated at 95 °C for 10 min to end enzyme activity after which it was injected into LC-MS to confirm the stability of the peptide.

The target in assay [2] is T1, human Dipeptidyl-peptidase (DPP-IV). The experiment in a line: DPP-IV inhibitory assay (Gly-Pro-p-nitroanilide substrate, absorbance 405 nm). Conditions: synthetic peptide; nonlinear regression, five concentrations. It is filed as biochemical. The source says:
Chinese soft-shelled turtle eggs were collected from Pingtung City, Taiwan. Pepsin (from porcine gastric mucosa), trypsin (from bovine pancreas), α-chymotrypsin (from bovine pancreas, thermolysin (from Geobacillus stearothermophilus), human Dipeptidyl-peptidase (DPP-IV), Gly-Pro-p-nitroaniline (GP_pNA), Iodoacetamide (IAM), and linagliptin were purchased from Sigma Chemical Co. (St. Louis, MO, USA). Formic acid (FA), acetonitrile (ACN), and ammonium bicarbonate (ABC) were acquired from J.T. Baker (Phillipsburg, NJ, USA). Sequencing grade modified trypsin was purchased from Promega (Madison, WI, USA). Trifluoroacetic acid (TFA) was acquired from Alfa Aesar (Lancashire, UK), and Wang resin was obtained from Cleo Salus (Louisville, KY, USA). Deionized water (ddH2O) was collected using the PURELAB® water purification system from ELGA LabWater (Lane End, High Wycombe, UK). All other chemicals used in this study were of reagent grades. HyperSep Retain PEP Polymeric material was purchased from Thermo Scientific Inc. Molecular weight cut-off (3 kDa MWCO) was procured from Millipore (Bedford, MA, USA).
The DPP-IV inhibitory assay was analyzed in triplicate according to the method of Lacroix and Li-Chan using 96-well microplates with slight modification. […] Linagliptin was used as a reference inhibitor in this experiment. All the reagents and samples were dissolved in 1% DMSO buffer. […] The blank and negative control contained 25 µL of 1% DMSO and 25 µL of DPP-IV buffer. The reaction was activated by 50 µL of DPP-IV (1 U/µL) while the blank sample used 50 µL of DPP-IV buffer instead. After 1 h at 37 °C, the mixture was terminated using 100 µL of 1M sodium acetate buffer at pH 4.0. A concentration of peptide that can inhibit fifty percentage of DPP-IV activity was defined as the IC50 value of DPP-IV inhibition peptide. The IC50 value was determined using different concentrations of inhibitor by nonlinear regression of Graphpad Prism 5.0 (GraphPad Software, Inc., La Jolla, CA, USA).

Assay [3] deals with DPP-IV. To be noted: cited from earlier work.

T1 sequence (P27487 whole entry): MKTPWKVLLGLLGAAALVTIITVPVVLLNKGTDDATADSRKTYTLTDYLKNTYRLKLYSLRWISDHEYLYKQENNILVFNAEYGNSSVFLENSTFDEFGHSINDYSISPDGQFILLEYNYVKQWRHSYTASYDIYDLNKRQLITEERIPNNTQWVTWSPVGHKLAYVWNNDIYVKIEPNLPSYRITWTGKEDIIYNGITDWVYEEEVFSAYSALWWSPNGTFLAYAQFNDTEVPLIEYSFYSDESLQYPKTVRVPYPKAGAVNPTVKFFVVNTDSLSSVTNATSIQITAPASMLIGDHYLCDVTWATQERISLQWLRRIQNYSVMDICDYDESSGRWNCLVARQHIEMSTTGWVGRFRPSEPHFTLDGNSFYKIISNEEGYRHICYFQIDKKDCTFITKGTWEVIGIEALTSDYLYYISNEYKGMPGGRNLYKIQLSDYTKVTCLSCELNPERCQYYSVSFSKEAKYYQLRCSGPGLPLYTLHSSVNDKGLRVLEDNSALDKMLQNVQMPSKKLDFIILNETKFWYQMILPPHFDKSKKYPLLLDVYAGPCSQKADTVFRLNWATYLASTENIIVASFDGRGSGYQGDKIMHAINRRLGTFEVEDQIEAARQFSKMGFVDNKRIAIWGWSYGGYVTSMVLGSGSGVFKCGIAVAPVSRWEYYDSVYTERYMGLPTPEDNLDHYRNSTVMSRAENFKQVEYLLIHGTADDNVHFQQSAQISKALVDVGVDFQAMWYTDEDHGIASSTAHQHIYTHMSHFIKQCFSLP

For the compound `CC(C)C[C@H](NC(=O)[C@H](CCC(N)=O)NC(=O)[C@H](CC(C)C)NC(=O)[C@@H](N)Cc1c[nH]c2ccccc12)C(=O)O` [WLQL] (H-WLQL-OH), in assay [1], the “DPP-IV inhibitory activity, after pre-incubation” value was 55.28% and the “DPP-IV inhibitory activity, without pre-incubation” value is listed as 53.06%. Also, in assay [2], half-maximal inhibition (IC50) was put at 433 ± 40.3 µM.
Take GGPASGPAV: the IC50 in assay [3] (peptides from salmon gelatin) was 8140 µM.
As for `CC(C)C[C@H](NC(=O)[C@H](C)NC(=O)[C@H](CC(C)C)NC(=O)CNC(=O)[C@@H]1CCCN1C(=O)[C@@H](N)C(C)C)C(=O)O` [VPGLAL] (H-VPGLAL-OH), in assay [1], the “DPP-IV inhibitory activity, after pre-incubation” value was 58.66% and the “DPP-IV inhibitory activity, without pre-incubation” value amounted to 66.14%. The compound further had a half-inhibitory concentration (IC50) in assay [2] of 289 ± 11.9 µM.
With `CC(C)C[C@H](N)C(=O)N1CCC[C@H]1C(=O)N[C@@H](CO)C(=O)N[C@@H](Cc1c[nH]c2ccccc12)C(=O)O` [LPSW] (H-LPSW-OH), in assay [1], the “DPP-IV inhibitory activity, after pre-incubation” value is given as 55.22% and the “DPP-IV inhibitory activity, without pre-incubation” value is 76.72%. In assay [2], this compound displayed an IC50 of 270 ± 15.9 µM.
`CC(C)C[C@H](NC(=O)[C@@H]1CCCN1C(=O)[C@@H](N)CC(C)C)C(=O)N[C@@H](Cc1ccccc1)C(=O)O` [LPLF] (H-LPLF-OH): in assay [1], the “DPP-IV inhibitory activity, after pre-incubation” value is 41.09% and the “DPP-IV inhibitory activity, without pre-incubation” value was determined as 52.79%. The same compound displayed an IC50 in assay [2] of 464 ± 5.52 µM.
Turning to ILNKEGINY, the IC50 in assay [3] (peptides from camel milk) is 348 µM.
As for LPLPL, the IC50 in assay [3] (peptides from milk) was 325 µM.
The compound `CC(C)C[C@H](NC(=O)[C@@H]1CCCN1C(=O)[C@H](CC(C)C)NC(=O)CNC(=O)[C@@H](NC(=O)[C@@H](N)CC(C)C)C(C)C)C(=O)O` [LVGLPL] (H-LVGLPL-OH) showed an IC50 in assay [2] above 2000 µM.
